Measurements reported in the supplement of paper PMC13380429.

Experiments:
[1] = tested on: A549-ACE2 infected with SARS-CoV-2; assay: cell count relative to DMSO; higher = less toxic; conditions: 24 h
[2] = tested on: A549-ACE2 infected with SARS-CoV-2; assay: SARS-CoV-2 infection rate relative to DMSO; higher = more infection; conditions: 24 h
A549-ACE2 = assay: drug-induced phospholipidosis relative to tamoxifen; higher = more phospholipidosis
[3] = tested on: A549-ACE2 infected with SARS-CoV-2; assay: morphology score (similarity to uninfected cells); higher = more like uninfected cells; conditions: 24 h
Caco-2 [4] = assay: cell viability relative to DMSO; higher = less toxic; conditions: 72 h
Calu-3 [5] = assay: as above; conditions: 72 h
HepG2 [6] = assay: as above; conditions: 72 h
U2OS [7] = assay: as above; conditions: 72 h
Vero E6 [8] = assay: as above; conditions: 72 h
Calu-3 [9] = assay: relative viability EC50 (midpoint between 100% and the lowest measured viability); higher = less toxic; conditions: 72 h
HepG2 [10] = assay: as above; conditions: 72 h
Caco-2 [11] = assay: drug sensitivity score (DSS) for viability; higher = more toxic; extreme values may be limits of the assay; conditions: 72 h
Calu-3 [12] = assay: as above; conditions: 72 h
HepG2 [13] = assay: as above; conditions: 72 h
U2OS [14] = assay: as above; conditions: 72 h
Vero E6 [15] = assay: as above; conditions: 72 h
Caco-2 [16] = assay: relative viability EC50 (midpoint between 100% and the lowest measured viability); higher = less toxic; conditions: 72 h
U2OS [17] = assay: as above; conditions: 72 h
Vero E6 [18] = assay: as above; conditions: 72 h

Cn1nc(C(C)(C)C)cc1C(=O)N[C@@H](Cc1cccc(Cl)c1)C(=O)NCC#N [Cathepsin Inhibitor 1]
Conditions	SARS-CoV-2 infection rate, [2] [%]	cell count, [1] [%]	morphology score, [3]
0.3 µM	56	117	0.72
3 µM	33	125	0.85
10 µM	20	121	0.91
30 µM	17	121	0.91

drug-induced phospholipidosis [%], A549-ACE2
Conditions	0.3 µM	0.833333 µM	3.33333 µM	6.66667 µM	10 µM	30 µM
24 h	6.59	1.92	9.11	12.3	12.3	38.3
48 h	3.88	2.55	8.4	13.7	15.4	38.9
72 h	7.75	3.09	6.53	12.2	10.8	42

COc1cc(N2CCN(C)CC2)ccc1Nc1nccc(-c2cn(C)c3cnccc23)n1 [AZ191]
Conditions	SARS-CoV-2 infection rate, [2] [%]	cell count, [1] [%]	cell viability, Caco-2 [4] [%]	cell viability, Calu-3 [5] [%]	cell viability, HepG2 [6] [%]	cell viability, U2OS [7] [%]	cell viability, Vero E6 [8] [%]	morphology score, [3]
1 nM	–	–	96.7	96.4	97.3	97.9	93.6	–
10 nM	–	–	94.4	93.6	93.8	104	101	–
0.1 µM	95	106	–	–	–	–	–	0.14
100 nM	–	–	96.6	93.3	98.4	99.6	98.5	–
0.3 µM	103	102	–	–	–	–	–	0.19
1 µM	95	116	–	–	–	–	–	0.38
1000 nM	–	–	98.5	101	87.1	103	95	–
3 µM	53	120	–	–	–	–	–	0.74
10000 nM	–	–	64.4	102	22.3	64.5	62.6	–

drug-induced phospholipidosis [%], A549-ACE2
Conditions	0.3 µM	0.833333 µM	3.33333 µM	6.66667 µM	10 µM
24 h	1.95	-3.91	0.16	32.4	35.2
48 h	-0.41	-2.25	-2.09	41.3	–
72 h	3.05	-1.34	-1.23	–	–

Conditions	drug sensitivity score	relative viability EC50 [µM]
Caco-2 [11]	1.9	–
Calu-3 [9]	–	> 10
Calu-3 [12]	0	–
HepG2 [10]	–	1.9
HepG2 [13]	6.4	–
U2OS [14]	1.5	–
Vero E6 [15]	2.6	–

CCOC(=O)[C@H](CCc1ccccc1)N[C@@H](C)C(=O)N1[C@H](C(=O)O)C[C@H]2CCCC[C@@H]21 [trandolapril]
cell viability [%]
Conditions	Caco-2 [4]	Calu-3 [5]	HepG2 [6]	U2OS [7]	Vero E6 [8]
1 nM	93.1	106	90.7	97.6	91.6
10 nM	86	98	104	92.6	97.3
100 nM	83.2	102	96.4	98.5	89.6
1000 nM	89.6	108	100	96	96.1
10000 nM	100	102	108	99.4	107

Conditions	drug sensitivity score	relative viability EC50 [µM]
Caco-2 [11]	0.4	–
Caco-2 [16]	–	> 10
Calu-3 [9]	–	> 10
Calu-3 [12]	0	–
HepG2 [10]	–	> 10
HepG2 [13]	0	–
U2OS [14]	0	–
U2OS [17]	–	> 10
Vero E6 [15]	0	–
Vero E6 [18]	–	> 10

O=C1CC2(CCCC2)CC(=O)N1CCNC[C@H]1COc2ccccc2O1
cell viability [%]
Conditions	Caco-2 [4]	Calu-3 [5]	HepG2 [6]	U2OS [7]	Vero E6 [8]
1 nM	95.4	92.5	108	103	99.4
10 nM	89	107	108	97	101
100 nM	99.9	98.4	93.2	97.2	106
1000 nM	98.5	107	110	96.3	92.6
10000 nM	101	96.3	98.3	101	97.8

Conditions	drug sensitivity score	relative viability EC50 [µM]
Caco-2 [11]	0	–
Caco-2 [16]	–	> 10
Calu-3 [9]	–	> 10
Calu-3 [12]	0	–
HepG2 [10]	–	> 10
HepG2 [13]	0	–
U2OS [14]	0	–
U2OS [17]	–	> 10
Vero E6 [15]	0	–
Vero E6 [18]	–	> 10

CCC[C@H](N[C@H]1CCc2cc(F)cc(F)c2C1)C(=O)Nc1cn(C(C)(C)CNCC(C)(C)C)cn1
cell viability [%]
Conditions	Caco-2 [4]	Calu-3 [5]	HepG2 [6]	U2OS [7]	Vero E6 [8]
1 nM	102	95	105	102	99.7
10 nM	91.8	105	104	94.7	104
100 nM	102	108	104	99.7	107
1000 nM	98.2	103	93.9	92.4	95.5
10000 nM	86.1	84.4	80.1	87.9	89.1

Conditions	drug sensitivity score	relative viability EC50 [µM]
Caco-2 [11]	0.3	–
Caco-2 [16]	–	> 10
Calu-3 [9]	–	> 10
Calu-3 [12]	0.2	–
HepG2 [10]	–	> 10
HepG2 [13]	1.3	–
U2OS [14]	0.2	–
U2OS [17]	–	> 10
Vero E6 [15]	0.1	–
Vero E6 [18]	–	> 10

CCC/C=C1\OC(=O)C2=C1CCC=C2 [ligustilide]
cell viability [%]
Conditions	Caco-2 [4]	Calu-3 [5]	HepG2 [6]	U2OS [7]	Vero E6 [8]
1 nM	100	100	106	96.2	93.8
10 nM	104	88.8	106	101	101
100 nM	113	103	111	101	102
1000 nM	122	101	94.6	95.4	100
10000 nM	83.6	106	110	94.7	106

Conditions	drug sensitivity score	relative viability EC50 [µM]
Caco-2 [11]	0.1	–
Caco-2 [16]	–	> 10
Calu-3 [9]	–	> 10
Calu-3 [12]	0	–
HepG2 [10]	–	> 10
HepG2 [13]	0	–
U2OS [14]	0	–
U2OS [17]	–	> 10
Vero E6 [15]	0	–
Vero E6 [18]	–	> 10

Oc1cccc(O)c1 [resorcinol]
cell viability [%]
Conditions	Caco-2 [4]	Calu-3 [5]	HepG2 [6]	U2OS [7]	Vero E6 [8]
1 nM	103	97.5	105	97.6	103
10 nM	89.8	102	92.9	93.8	96
100 nM	95.5	114	90.4	96.2	97.4
1000 nM	100	99.2	79.2	96.8	96.5
10000 nM	103	103	89	103	107

Conditions	drug sensitivity score	relative viability EC50 [µM]
Caco-2 [11]	0	–
Caco-2 [16]	–	> 10
Calu-3 [9]	–	> 10
Calu-3 [12]	0	–
HepG2 [10]	–	> 10
HepG2 [13]	2.5	–
U2OS [14]	0	–
U2OS [17]	–	> 10
Vero E6 [15]	0	–
Vero E6 [18]	–	> 10

COc1cccc(NC(=O)/C=C/c2ccc(Cl)cc2)c1
cell viability [%]
Conditions	Caco-2 [4]	Calu-3 [5]	HepG2 [6]	U2OS [7]	Vero E6 [8]
1 nM	98.2	104	102	93	102
10 nM	100	99.4	103	100	96.4
100 nM	98.5	93.3	99.8	96.3	97.2
1000 nM	88.3	108	98.3	97.9	95
10000 nM	81	84.2	105	92.8	107

Conditions	drug sensitivity score	relative viability EC50 [µM]
Caco-2 [11]	1.4	–
Caco-2 [16]	–	> 10
Calu-3 [9]	–	> 10
Calu-3 [12]	0.1	–
HepG2 [10]	–	> 10
HepG2 [13]	0	–
U2OS [14]	0	–
U2OS [17]	–	> 10
Vero E6 [15]	0	–
Vero E6 [18]	–	> 10

CCC(=O)O[C@]1(C(=O)CO)CC[C@H]2[C@@H]3CCC4=CC(=O)CC[C@]4(C)[C@H]3CC[C@@]21C [CB-03-01]
cell viability [%]
Conditions	Caco-2 [4]	Calu-3 [5]	HepG2 [6]	U2OS [7]	Vero E6 [8]
1 nM	99.4	93.7	102	99.9	101
10 nM	103	97	106	104	107
100 nM	100	102	90.8	98.3	101
1000 nM	101	109	95.4	102	96.8
10000 nM	101	94.9	96.1	97	99.6

Conditions	drug sensitivity score	relative viability EC50 [µM]
Caco-2 [11]	0	–
Caco-2 [16]	–	> 10
Calu-3 [9]	–	> 10
Calu-3 [12]	0	–
HepG2 [10]	–	> 10
HepG2 [13]	0	–
U2OS [14]	0	–
U2OS [17]	–	> 10
Vero E6 [15]	0	–
Vero E6 [18]	–	> 10

COC(=O)CCc1ccc(OCC(O)CNC(C)C)cc1 (stereo unspecified) [esmolol]
cell viability [%]
Conditions	Caco-2 [4]	Calu-3 [5]	HepG2 [6]	U2OS [7]	Vero E6 [8]
1 nM	102	111	110	101	97.2
10 nM	84.8	99.8	102	95	93.1
100 nM	98.5	96.9	94.5	94.6	95.5
1000 nM	95.5	105	109	94.1	100
10000 nM	97.8	102	96.5	99	95.5

Conditions	drug sensitivity score	relative viability EC50 [µM]
Caco-2 [11]	0	–
Caco-2 [16]	–	> 10
Calu-3 [9]	–	> 10
Calu-3 [12]	0	–
HepG2 [10]	–	> 10
HepG2 [13]	0	–
U2OS [14]	0	–
U2OS [17]	–	> 10
Vero E6 [15]	0	–
Vero E6 [18]	–	> 10

COc1ccc([C@]2(C#N)CC[C@@H](C(=O)O)CC2)cc1OC1CCCC1 [cilomilast]
cell viability [%]
Conditions	Caco-2 [4]	Calu-3 [5]	HepG2 [6]	U2OS [7]	Vero E6 [8]
1 nM	98.3	97.8	89.4	103	88.2
10 nM	91.3	112	93.6	97.4	98.7
100 nM	106	102	98.3	99.7	89.8
1000 nM	106	88.9	97.2	100	95.9
10000 nM	100	95.9	104	100	97.9

Conditions	drug sensitivity score	relative viability EC50 [µM]
Caco-2 [11]	0	–
Caco-2 [16]	–	> 10
Calu-3 [9]	–	> 10
Calu-3 [12]	0.3	–
HepG2 [10]	–	> 10
HepG2 [13]	0	–
U2OS [14]	0	–
U2OS [17]	–	> 10
Vero E6 [15]	0	–
Vero E6 [18]	–	> 10

CC(CN(C)C)CN1c2ccccc2CCc2ccccc21 (stereo unspecified) [trimipramine]
cell viability [%]
Conditions	Caco-2 [4]	Calu-3 [5]	HepG2 [6]	U2OS [7]	Vero E6 [8]
1 nM	95.6	92.3	103	98.7	103
10 nM	87.1	101	104	96.4	101
100 nM	98	105	94.3	102	97.6
1000 nM	102	105	101	98.1	96.8
10000 nM	93.7	89.4	89.7	97.1	89.8

Conditions	drug sensitivity score	relative viability EC50 [µM]
Caco-2 [11]	0	–
Caco-2 [16]	–	> 10
Calu-3 [9]	–	> 10
Calu-3 [12]	0	–
HepG2 [10]	–	> 10
HepG2 [13]	0	–
U2OS [14]	0	–
U2OS [17]	–	> 10
Vero E6 [15]	0	–
Vero E6 [18]	–	> 10
